{"source": "patent US9572787B2", "about": "“Inhibition of renal fibrosis” (Rhode Island Hospital, priority 2011, dated 2017)", "key": {"NRK-49F cells": {"test_system": "NRK-49F cells", "experiment": "S3I-201 in cultured renal interstitial fibroblasts (immunoblot, qRT-PCR)", "type": "cell-based, rat", "method": "Cell culture and treatments. NRK-49F cells were cultured in Dulbecco's modified eagle's medium (DMEM) (Sigma-Aldrich, St. Louis, Mo.) containing 10% fetal bovine serum (FBS), 0.5% penicillin and streptomycin in an atmosphere of 5% CO2 and 95% air at 37° C. Western blot analysis and Sirius red and immunofluorescent staining were carried out according to standard methods. Quantitative real-time PCR. Real time qRT-PCR amplifications were performed in 20 μl reactions. The amplification protocol was as follows: denaturation for 10 minutes and enzyme activation at 95° C., 40 cycles of 95° C.×10 sec, 59° C.×30 sec, and 72° C.×20 sec, followed by one step […] at 72° C. for 5 minutes. Relative mRNA abundance was determined from the ratios of specific mRNA to 18S ribosomal RNA measured in the same samples, and fold change was calculated relative to the group of sham-operated mice with vehicle treatment."}, "obstructive kidney (UUO)": {"test_system": "obstructive kidney (UUO)", "experiment": "UUO model, daily S3I-201 treatment", "type": "in vivo, mouse", "conditions": "for STAT3 phosphorylation: 10 mg/kg i.p. daily", "method": "Unilateral […] obstruction (UUO) model and S3I-201 treatment. The UUO model was established in male C57 black mice that weighed 20-25 g (Jackson Laboratory, Bar Harbor, Me.) as described previously. The contralateral kidneys were used as controls. To examine the efficacy of S3I-201 in renal fibrosis after UUO injury, S3I-201 (10 mg/kg) in 50 μl of dimethyl sulfoxide (DMSO) was intraperitoneally administered to mice immediately after ureter ligation and then given daily for 6 or 13 days. Mice were randomized into 4 groups with 6-7 mice in each group as follows: (1) sham injury with DMSO as vehicle; (2) sham injury with S3I-201; (3) UUO injury with DMSO; (4) UUO injury with S3I-201.\nWestern blot analysis and Sirius red and immunofluorescent staining were carried out according to standard methods.\nQuantitative real-time PCR. Real time qRT-PCR amplifications were performed in 20 μl reactions. The amplification protocol was as follows: denaturation for 10 minutes and enzyme activation at 95° C., 40 cycles of 95° C.×10 sec, 59° C.×30 sec, and 72° C.×20 sec, followed by one step […] at 72° C. for 5 minutes. Relative mRNA abundance was determined from the ratios of specific mRNA to 18S ribosomal RNA measured in the same samples, and fold change was calculated relative to the group of sham-operated mice with vehicle treatment.\nELISA. Protein levels of TGF-β1, TNF-α, and IL-1β in kidney homogenates were determined using specific sandwich enzyme immunometric assay kits, ELISA Ready-SET-Go (eBioscience, Inc. San Diego, Calif.) as described previously. The results were normalized by total protein content in kidney homogenates.\nIn situ TUNEL assays. Terminal deoxynucleotidyl transferase biotin-dUTP nick end-labeling (TUNEL) staining was used to detect DNA strand breaks using a detection kit, according to the instructions provided by the manufacturer. The number of TUNEL-positive nuclei per field was evaluated in five fields per section and five sections per kidney."}, "[1]": {"conditions": "dose- and time-dependent, 24 h dose series, 50 μM time course"}}, "data": [{"smiles": "Cc1ccc(S(=O)(=O)OCC(=O)Nc2ccc(C(=O)O)c(O)c2)cc1", "note": "[S3I-201]", "values": [{"measurement": "expression of p-STAT3", "setting": "NRK-49F cells; 100 μM, 3 h", "value": "complete inhibition"}, {"measurement": "TGF-β1 mRNA expression", "setting": "NRK-49F cells; 5% FBS, 50 μM S3I-201, 6 h", "value": "significantly decreased"}, {"measurement": "TβRII mRNA expression", "setting": "NRK-49F cells; 5% FBS, 50 μM S3I-201, 6 h", "value": "significantly decreased"}, {"measurement": "TβRIII mRNA expression", "setting": "NRK-49F cells; 5% FBS, 50 μM S3I-201, 6 h", "value": "significantly decreased"}, {"measurement": "expression of p-STAT1", "setting": "NRK-49F cells; 3 h, dose dependent", "value": "increased"}, {"measurement": "STAT5 phosphorylation", "setting": "NRK-49F cells; 3 h, indicated concentrations", "value": "did not affect"}, {"measurement": "expression of fibronectin", "setting": "NRK-49F cells; [1]", "value": "dramatically decreased"}, {"measurement": "expression of α-SMA", "setting": "NRK-49F cells; [1]", "value": "dramatically decreased"}, {"measurement": "apoptosis of interstitial cells (TUNEL)", "setting": "obstructive kidney (UUO); 10 mg/kg daily for 7 days", "value": "increased apoptosis"}, {"measurement": "apoptosis of renal tubular cells (TUNEL)", "setting": "obstructive kidney (UUO); 10 mg/kg daily for 7 days", "value": "did not induce apoptosis"}, {"measurement": "proliferation of interstitial cells (phospho-histone H3 Ser 10)", "setting": "obstructive kidney (UUO); 10 mg/kg daily for 7 days", "value": "decreased their proliferation"}, {"measurement": "ICAM-1 mRNA expression", "setting": "obstructive kidney (UUO); 10 mg/kg daily, day 7", "value": "reduced"}, {"measurement": "IL-1β mRNA expression", "setting": "obstructive kidney (UUO); 10 mg/kg daily, day 7", "value": "reduced"}, {"measurement": "IL-1β protein (ELISA)", "setting": "obstructive kidney (UUO); 10 mg/kg daily, day 7", "value": "significantly suppressed"}, {"measurement": "Sirius red-positive areas", "setting": "obstructive kidney (UUO); 10 mg/kg daily, day 7", "value": "significantly reduced"}, {"measurement": "TGF-β1 mRNA expression", "setting": "obstructive kidney (UUO); 10 mg/kg daily, day 7", "value": "reduced their levels"}, {"measurement": "TGF-β1 protein (ELISA)", "setting": "obstructive kidney (UUO); 10 mg/kg daily, day 7", "value": "decreased"}, {"measurement": "TNF-α mRNA expression", "setting": "obstructive kidney (UUO); 10 mg/kg daily, day 7", "value": "reduced"}, {"measurement": "TNF-α protein (ELISA)", "setting": "obstructive kidney (UUO); 10 mg/kg daily, day 7", "value": "significantly suppressed"}, {"measurement": "TβRI mRNA expression at the basal level", "setting": "obstructive kidney (UUO); 10 mg/kg daily, day 7", "value": "not affected"}, {"measurement": "TβRII mRNA expression", "setting": "obstructive kidney (UUO); 10 mg/kg daily, day 7", "value": "reduced their levels"}, {"measurement": "TβRIII mRNA basal level", "setting": "obstructive kidney (UUO); 10 mg/kg daily, day 7", "value": "reduced the basal level"}, {"measurement": "UUO injury-induced MCP-1 mRNA expression", "setting": "obstructive kidney (UUO); 10 mg/kg daily, day 7", "value": "did not affect"}, {"measurement": "UUO-induced collagen type 1 mRNA expression", "setting": "obstructive kidney (UUO); 10 mg/kg daily, day 7", "value": "attenuated this response"}, {"measurement": "basal level of collagen type 1 expression in control kidneys", "setting": "obstructive kidney (UUO); 10 mg/kg daily, day 7", "value": "did not affect"}, {"measurement": "basal level of α-SMA expression in control kidneys", "setting": "obstructive kidney (UUO); 10 mg/kg daily, day 7", "value": "did not affect"}, {"measurement": "collagen type 1 expression in obstructive kidneys", "setting": "obstructive kidney (UUO); 10 mg/kg daily, day 7", "value": "decreased collagen type 1 to the basal level"}, {"measurement": "decrease in expression of ECM components (Sirius red, semi-quantitative)", "setting": "obstructive kidney (UUO); 10 mg/kg daily, day 7", "value": "approximately 60%"}, {"measurement": "expression of snail", "setting": "obstructive kidney (UUO); 10 mg/kg daily, day 7", "value": "did not affect"}, {"measurement": "expression of β-catenin", "setting": "obstructive kidney (UUO); 10 mg/kg daily, day 7", "value": "did not affect"}, {"measurement": "fibronectin expression (immunoblot densitometry)", "setting": "obstructive kidney (UUO); 10 mg/kg daily, day 7", "value": "blocked"}, {"measurement": "fibronectin expression (immunostaining)", "setting": "obstructive kidney (UUO); 10 mg/kg daily, day 7", "value": "decreased its expression"}, {"measurement": "leukocyte infiltration (naphthol AS-D chloroacetate esterase staining)", "setting": "obstructive kidney (UUO); 10 mg/kg daily, day 7", "value": "reduced leukocyte infiltration to basal levels"}, {"measurement": "α-SMA expression in obstructive kidneys", "setting": "obstructive kidney (UUO); 10 mg/kg daily, day 7", "value": "inhibited"}, {"measurement": "total STAT3 expression", "setting": "obstructive kidney (UUO); 10 mg/kg daily, day 7 and day 14", "value": "not affected"}, {"measurement": "collagen type 1 expression", "setting": "obstructive kidney (UUO); 10 mg/kg daily, day 14", "value": "decreased"}, {"measurement": "α-SMA expression", "setting": "obstructive kidney (UUO); 10 mg/kg daily, day 14", "value": "decreased"}, {"measurement": "STAT3 phosphorylation", "setting": "obstructive kidney (UUO); day 7", "value": "largely suppressed"}, {"measurement": "STAT3 phosphorylation", "setting": "obstructive kidney (UUO); day 14", "value": "small inhibition"}]}]}
